Experimental data: patent publication US10221426B2, “Constitutively active PYR/PYL receptor proteins for improving plant stress tolerance” (The Regents of the University of California, priority 2009, dated 2019)

Molecular target: T1, HAB1 in the presence of PYR1 (Arabidopsis thaliana, UniProt O49686)
T1 construct: made in house; host or cells: E. coli BL21[DE3]pLysS
T1 sequence (O49686 1-191): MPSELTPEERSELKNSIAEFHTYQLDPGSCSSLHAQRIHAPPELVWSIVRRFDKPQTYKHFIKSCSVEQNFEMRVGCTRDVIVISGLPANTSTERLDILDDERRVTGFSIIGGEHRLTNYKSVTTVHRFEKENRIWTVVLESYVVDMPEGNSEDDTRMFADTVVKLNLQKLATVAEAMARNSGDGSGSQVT
T1 sequence (Q9CAJ0 23-511 partner): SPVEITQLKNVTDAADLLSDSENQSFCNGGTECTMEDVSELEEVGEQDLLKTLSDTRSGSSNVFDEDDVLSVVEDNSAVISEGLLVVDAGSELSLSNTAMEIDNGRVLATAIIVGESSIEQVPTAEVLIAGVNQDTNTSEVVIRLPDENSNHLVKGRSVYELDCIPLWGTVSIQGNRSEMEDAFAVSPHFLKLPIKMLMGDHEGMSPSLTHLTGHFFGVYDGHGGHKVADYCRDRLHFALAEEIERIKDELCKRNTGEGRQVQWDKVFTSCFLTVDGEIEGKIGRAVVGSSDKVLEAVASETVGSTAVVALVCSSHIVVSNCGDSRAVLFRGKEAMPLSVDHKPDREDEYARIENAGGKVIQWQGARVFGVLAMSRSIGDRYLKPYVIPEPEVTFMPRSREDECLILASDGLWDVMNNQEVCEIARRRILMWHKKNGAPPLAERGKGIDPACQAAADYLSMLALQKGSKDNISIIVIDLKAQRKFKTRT
Assay: PP2C phosphatase assay (pNPP), GST-HAB1 in the presence of PYR1
Assay type: biochemical
Details: 1 μM GST-HAB1, 1.5 μM 6×His-PYR1, 50 mM pNPP; read-out: IC50 of inhibition of HAB1 phosphatase activity in the presence of PYR1
Source text: Since ABI1 and relatives are negative regulators of the ABA signaling pathway, we hypothesized that the function of the ABA-promoted PYR1-PP2C interaction was to inhibit phosphatase activity and remove a negative input into the pathway, which would then promote signaling. To test this hypothesis, we examined the effects of (+)-ABA on PP2C enzyme kinetics using recombinant GST-HAB1, 6×His-PYR1 or 6×His-PYR1^P88S using the phosphatase substrate pNPP. The ORF of Arabidopsis HAB1 was amplified by PCR from a pUni clone obtained from the ABRC and cloned into pGex-2T to create a GST-HAB1 fusion protein. Both constructs were transformed into BL21[DE3]pLysS. For expression, cells harboring pGex-GST-HAB1 were grown overnight in 20 ml LB and then inoculated to 700 ml media containing 1 mM MnCl2 and continued incubation with shaking at RT for 8 hr. Protein expression was then induced by addition of IPTG to final concentration of 0.5 mM, and cells were cultured overnight at RT. […] Immediately after mixing, reactions were monitored for hydrolysis of pNPP at A405 t˜10 second intervals over 20 minutes using a Wallac plate reader. Reaction progressions were plotted, initial velocities calculated and converted to specific activities using a standard curve for 4-nitrophenol made in the same buffer system volumes/plate reader used for enzymatic reaction measurements. […]

## CC1=CC(=O)CC(C)(C)C1(O)/C=C/C(C)=C\C(=O)O (single isomer, unassigned; (+)) [(+)-ABA]
  IC50: 180 nM
